Measurements taken from patent publication US9579314B2 (priority 2015, dated 2017).

Experiments:
Human M3 receptor = Human M3 receptor (Homo sapiens, UniProt P20309); conditions: read-out: M3 binding affinity
Human β2 adrenoceptor = Human β2 adrenoceptor (Homo sapiens, UniProt P07550); conditions: read-out: B2 binding affinity
Chain of Human β2 adrenoceptor (P07550 whole entry): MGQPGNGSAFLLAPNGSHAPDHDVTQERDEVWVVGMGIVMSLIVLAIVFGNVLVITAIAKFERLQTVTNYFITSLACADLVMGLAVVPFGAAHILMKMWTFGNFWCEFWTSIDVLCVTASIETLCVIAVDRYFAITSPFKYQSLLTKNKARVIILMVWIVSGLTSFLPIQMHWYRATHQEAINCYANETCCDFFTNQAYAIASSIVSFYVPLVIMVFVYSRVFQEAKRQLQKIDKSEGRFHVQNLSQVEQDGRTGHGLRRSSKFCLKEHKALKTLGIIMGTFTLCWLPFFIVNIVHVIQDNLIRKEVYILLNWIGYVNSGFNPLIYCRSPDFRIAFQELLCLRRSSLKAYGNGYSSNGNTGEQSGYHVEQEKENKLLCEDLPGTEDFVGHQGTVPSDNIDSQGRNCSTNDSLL

Chain of Human M3 receptor (P20309 whole entry): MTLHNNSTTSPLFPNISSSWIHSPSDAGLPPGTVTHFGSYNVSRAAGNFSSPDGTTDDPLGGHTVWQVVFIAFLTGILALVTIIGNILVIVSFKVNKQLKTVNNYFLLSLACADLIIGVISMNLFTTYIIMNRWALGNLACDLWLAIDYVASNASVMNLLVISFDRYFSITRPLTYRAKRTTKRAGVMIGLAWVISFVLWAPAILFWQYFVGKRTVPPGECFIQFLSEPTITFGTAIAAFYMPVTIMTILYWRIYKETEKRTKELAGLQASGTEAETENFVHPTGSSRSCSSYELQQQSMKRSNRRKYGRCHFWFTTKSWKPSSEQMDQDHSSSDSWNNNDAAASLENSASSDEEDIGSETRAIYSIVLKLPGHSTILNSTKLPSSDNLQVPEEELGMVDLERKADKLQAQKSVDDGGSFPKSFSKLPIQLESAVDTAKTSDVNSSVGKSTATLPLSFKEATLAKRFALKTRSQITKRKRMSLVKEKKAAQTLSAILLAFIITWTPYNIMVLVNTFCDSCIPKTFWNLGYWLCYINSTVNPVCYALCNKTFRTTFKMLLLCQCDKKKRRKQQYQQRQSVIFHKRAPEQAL

SMILES	IC50 (Human M3 receptor) [nM]	IC50 (Human β2 adrenoceptor) [nM]
O=C1C=Cc2c([C@@H](O)CNCCC3CCN(C(=O)c4ccc(COc5cccc([C@](O)(C(=O)OCC6CCN(Cc7ccccc7)CC6)c6ccccc6)c5)cc4)CC3)ccc(O)c2C1 [Compound 33A, (1-benzylpiperidin-4-yl)methyl (S)-2-hydroxy-2-(3-((4-(4-(2-(((R)-2-hydroxy-2-(4-hydroxy-6-oxo-5,6-dihydronaphthalen-1-yl)ethyl)amino)ethyl)piperidine-1-carbonyl)benzyl)oxy)phenyl)-2-phenylacetate]	0.3 to 3	< 0.3
O=C(NCCCOc1cccc([C@](O)(C(=O)OCC2CCN(Cc3ccccc3)CC2)c2ccccc2)c1)c1ccc(CCNC[C@H](O)c2ccc(O)c3[nH]c(=O)ccc23)cc1 [Compound 37, (S)-(1-benzylpiperidin-4-yl)methyl 2-hydroxy-2-(3-(3-(4-(2-(((R)-2-hydroxy-2-(8-hydroxy-2-oxo-1,2-dihydroquinolin-5-yl)ethyl)amino)ethyl)benzamido)propoxy)phenyl)-2-phenylacetate]	< 0.3	< 0.3
COc1cc(C(=O)NCCCOc2cccc([C@](O)(C(=O)OCC3CCN(Cc4ccccc4)CC3)c3ccccc3)c2)ccc1CNC[C@H](O)c1ccc(O)c2[nH]c(=O)ccc12 [Compound 32A, (S)-(1-benzylpiperidin-4-yl)methyl 2-hydroxy-2-(3-(3-(4-((((R)-2-hydroxy-2-(8-hydroxy-2-oxo-1,2-dihydroquinolin-5-yl)ethyl)amino)methyl)-3-methoxybenzamido)propoxy)phenyl)-2-phenylacetate]	0.3 to 3	< 0.3
O=C(c1ccc(CCNC[C@H](O)c2ccc(O)c3[nH]c(=O)ccc23)cc1)N1CCN(C(=O)c2ccc(COc3cccc([C@](O)(C(=O)OCC4CCN(Cc5ccccc5)CC4)c4ccccc4)c3)cc2)CC1 [Compound 118, (1-benzylpiperidin-4-yl)methyl (S)-2-hydroxy-2-(3-((4-(4-(4-(2-(((R)-2-hydroxy-2-(8-hydroxy-2-oxo-1,2-dihydroquinolin-5-yl)ethyl)amino)ethyl)benzoyl)piperazine-1-carbonyl)benzyl)oxy)phenyl)-2-phenylacetate]	< 0.3	0.3 to 3
O=C(NCC(=O)N1CCC(COc2cccc([C@](O)(C(=O)OCC3CCN(Cc4ccccc4)CC3)c3ccccc3)c2)CC1)c1ccc(CCNC[C@H](O)c2ccc(O)c3[nH]c(=O)ccc23)cc1 [Compound 152, (1-benzylpiperidin-4-yl)methyl (S)-2-hydroxy-2-(3-((1-((4-(2-(((R)-2-hydroxy-2-(8-hydroxy-2-oxo-1,2-dihydroquinolin-5-yl)ethyl)amino)ethyl)benzoyl)glycyl)piperidin-4-yl)methoxy)phenyl)-2-phenylacetate]	< 0.3	0.3 to 3
O=C(OCC1CCN(Cc2ccccc2)CC1)[C@](O)(c1ccccc1)c1cccc(OCCCCCCCNC[C@H](O)c2ccc(O)c3[nH]c(=O)ccc23)c1 [Compound 28, (S)-(1-benzylpiperidin-4-yl)methyl 2-hydroxy-2-(3-((7-(((R)-2-hydroxy-2-(8-hydroxy-2-oxo-1,2-dihydroquinolin-5-yl)ethyl)amino)heptyl)oxy)phenyl)-2-phenylacetate]	0.3 to 3	0.3 to 3
O=C(NCCNC(=O)c1ccc(COc2cccc([C@](O)(C(=O)OCC3CCN(Cc4ccccc4)CC3)c3ccccc3)c2)cc1)c1ccc(CNC[C@H](O)c2ccc(O)c3[nH]c(=O)ccc23)cc1 [Compound 125, (1-benzylpiperidin-4-yl)methyl (S)-2-hydroxy-2-(3-((4-((2-(4-((((R)-2-hydroxy-2-(8-hydroxy-2-oxo-1,2-dihydroquinolin-5-yl)ethyl)amino)methyl)benzamido)ethyl)carbamoyl)benzyl)oxy)phenyl)-2-phenylacetate]	0.3 to 3	0.3 to 3
O=C(NCc1ccc(COc2cccc([C@](O)(C(=O)OCC3CCN(Cc4ccccc4)CC3)c3ccccc3)c2)cc1)c1ccc(CNC[C@H](O)c2ccc(O)c3[nH]c(=O)ccc23)cc1 [Compound 42D, (1-benzylpiperidin-4-yl)methyl (S)-2-hydroxy-2-(3-((4-((4-((((R)-2-hydroxy-2-(8-hydroxy-2-oxo-1,2-dihydroquinolin-5-yl)ethyl)amino)methyl)benzamido)methyl)benzyl)oxy)phenyl)-2-phenylacetate]	0.3 to 3	< 0.3
O=C(c1ccc(CCNC[C@H](O)c2ccc(O)c3[nH]c(=O)ccc23)cc1)N1CCCC2(C1)CN(C(=O)c1ccc(COc3cccc([C@](O)(C(=O)OCC4CCN(Cc5ccccc5)CC4)c4ccccc4)c3)cc1)C2 [Compound 120, (1-benzylpiperidin-4-yl)methyl (S)-2-hydroxy-2-(3-((4-(6-(4-(2-(((R)-2-hydroxy-2-(8-hydroxy-2-oxo-1,2-dihydroquinolin-5-yl)ethyl)amino)ethyl)benzoyl)-2,6-diazaspiro[3.5]nonane-2-carbonyl)benzyl)oxy)phenyl)-2-phenylacetate]	< 0.3	< 0.3
O=C(COc1cccc([C@](O)(C(=O)OCC2CCN(Cc3ccccc3)CC2)c2ccccc2)c1)N[C@@H]1CCCN(C(=O)c2ccc(CCNC[C@H](O)c3ccc(O)c4[nH]c(=O)ccc34)cc2)C1 [Compound 105, (1-benzylpiperidin-4-yl)methyl (S)-2-hydroxy-2-(3-(2-(((R)-1-(4-(2-(((R)-2-hydroxy-2-(8-hydroxy-2-oxo-1,2-dihydroquinolin-5-yl)ethyl)amino)ethyl)benzoyl)piperidin-3-yl)amino)-2-oxoethoxy)phenyl)-2-phenylacetate]	0.3 to 3	0.3 to 3
O=C(NCCCOc1cccc([C@](O)(C(=O)OCC2CCN(Cc3ccccc3)CC2)c2ccccc2)c1)c1ccc(CNC[C@H](O)c2ccc(O)c3[nH]c(=O)ccc23)cc1 [Compound 32, (S)-(1-benzylpiperidin-4-yl)methyl 2-hydroxy-2-(3-(3-(4-((((R)-2-hydroxy-2-(8-hydroxy-2-oxo-1,2-dihydroquinolin-5-yl)ethyl)amino)methyl)benzamido)propoxy)phenyl)-2-phenylacetate]	0.3 to 3	< 0.3
CCc1ccccc1C(O)(C(=O)OCC1CCN(Cc2ccccc2)CC1)c1cccc(OCCCCCNC[C@H](O)c2ccc(O)c3[nH]c(=O)ccc23)c1 (stereo partly drawn) [Compound 8, (1-benzylpiperidin-4-yl)methyl 2-(2-ethylphenyl)-2-hydroxy-2-(3-((5-(((R)-2-hydroxy-2-(8-hydroxy-2-oxo-1,2-dihydroquinolin-5-yl)ethyl)amino)pentyl)oxy)phenyl)acetate]	> 3	0.3 to 3
O=C(COc1cccc([C@](O)(C(=O)OCC2CCN(Cc3ccccc3)CC2)c2ccccc2)c1)N[C@H]1C[C@H](NC(=O)c2ccc(CNC[C@H](O)c3ccc(O)c4[nH]c(=O)ccc34)c(Cl)c2)C1 [Compound 135, (1-benzylpiperidin-4-yl)methyl (S)-2-(3-(2-(((1R,3S)-3-(3-chloro-4-((((R)-2-hydroxy-2-(8-hydroxy-2-oxo-1,2-dihydroquinolin-5-yl)ethyl)amino)methyl)benzamido)cyclobutyl)amino)-2-oxoethoxy)phenyl)-2-hydroxy-2-phenylacetate]	0.3 to 3	< 0.3
COc1cc(CNC[C@H](O)c2ccc(O)c3[nH]c(=O)ccc23)ccc1C(=O)NCC(=O)N1CCC(COc2cccc([C@](O)(C(=O)OCC3CCN(Cc4ccccc4)CC3)c3ccccc3)c2)CC1 [Compound 155, (1-benzylpiperidin-4-yl)methyl (S)-2-hydroxy-2-(3-((1-((4-((((R)-2-hydroxy-2-(8-hydroxy-2-oxo-1,2-dihydroquinolin-5-yl)ethyl)amino)methyl)-2-methoxybenzoyl)glycyl)piperidin-4-yl)methoxy)phenyl)-2-phenylacetate]	0.3 to 3	< 0.3
O=C(NCCCNC(=O)c1cccc(C(O)(C(=O)OCC2CCN(Cc3ccccc3)CC2)c2ccccc2)c1)c1ccc(CNC[C@H](O)c2ccc(O)c3[nH]c(=O)ccc23)cc1 (stereo partly drawn) [Compound 50, (1-benzylpiperidin-4-yl)methyl 2-hydroxy-2-(3-((3-(4-((((R)-2-hydroxy-2-(8-hydroxy-2-oxo-1,2-dihydroquinolin-5-yl)ethyl)amino)methyl)benzamido)propyl)-carbamoyl)phenyl)-2-phenylacetate diformate]	0.3 to 3	> 3
Cc1ccccc1C(O)(C(=O)OCC1CCN(Cc2ccccc2)CC1)c1cccc(OCCCCCNC[C@H](O)c2ccc(O)c3[nH]c(=O)ccc23)c1 (stereo partly drawn) [Compound 7, (1-benzylpiperidin-4-yl)methyl 2-hydroxy-2-(3-((5-(((R)-2-hydroxy-2-(8-hydroxy-2-oxo-1,2-dihydroquinolin-5-yl)ethyl)amino)pentyl)oxy)phenyl)-2-(o-tolyl)acetate]	> 3	0.3 to 3
O=C(NCCCNC(=O)c1ccc(CNC[C@H](O)c2ccc(O)c3[nH]c(=O)ccc23)cc1)Nc1cccc(C(O)(C(=O)OCC2CCN(Cc3ccccc3)CC2)c2ccccc2)c1 (stereo partly drawn) [Compound 56, (1-benzylpiperidin-4-yl)methyl 2-hydroxy-2-(3-(3-(3-(4-((((R)-2-hydroxy-2-(8-hydroxy-2-oxo-1,2-dihydroquinolin-5-yl)ethyl)amino)methyl)benzamido)-propyl)ureido)phenyl)-2-phenylacetate diformate]	> 3	> 3
O=C(COc1cccc([C@](O)(C(=O)OCC2CCN(Cc3ccccc3)CC2)c2ccccc2)c1)N[C@H]1CCN(C(=O)c2ccc(CNC[C@H](O)c3ccc(O)c4[nH]c(=O)ccc34)cc2)C1 [Compound 70, (1-benzylpiperidin-4-yl)methyl (S)-2-hydroxy-2-(3-(2-(((S)-1-(4-((((R)-2-hydroxy-2-(8-hydroxy-2-oxo-1,2-dihydroquinolin-5-yl)ethyl)amino)methyl)benzoyl)pyrrolidin-3-yl)amino)-2-oxoethoxy)phenyl)-2-phenylacetate]	0.3 to 3	0.3 to 3
